Source: US20130230459A1, “RADIOLABELLED mGluR2 PET LIGANDS” (Janssen Pharmaceuticals, Inc., priority 2010, published 2013)
Values joined by “and” are separate entries in the source; they are usually repeats but may differ in a detail not shown here. Equal values may be shown once.

What was measured:
Format in all cases: in vivo, Wistar rats
[1] = Biodistribution studies of 11C tracers; conditions: for SUV Blood / SUV Cerebellum / SUV Cerebrum total / SUV Cortex / SUV Hippocampus / SUV Striatum: normalized for body weight
Experimental: Biodistribution studies were carried out in healthy male Wistar rats (body weight 200-450 g) at 2 min, 30 min and 60 min post injection (p.i.) (n=3/time point). Rats were injected with about 11 MBq (2 min, 30 min analysis) or 22 MBq (60 min analysis) of the tracer via tail vein under anesthesia (2.5% isoflurane in O2 at 1 L/min flow rate) and sacrificed by decapitation at above specified time points. Blood and major organs were collected in tared tubes and weighed. The radioactivity in blood, organs and other body parts was measured using an automated gamma counter. The distribution of radioactivity in different parts of the body at different time points p.i. of the tracer was calculated and expressed as percentage of injected dose (% ID), and as percentage of injected dose per gram tissue (% ID/g) for the selected organs. % ID is calculated as cpm in organ/total cpm recovered. For calculation of total radioactivity in blood, blood mass was assumed to be 7% of the body mass.

[2] = Plasma radiometabolite analysis (30 min p.i.); conditions: n = 2
Experimental: The metabolic stability of [^11C]B-4, [^11C]B-2, [^11C]B-7, and [^11C]B-10 was studied in healthy male Wistar rats by determination of the relative amounts of parent tracer and radiometabolites in plasma at 30 min p.i. of the tracer. After intravenous (i.v.) administration of about 74 MBq of the radioligand via tail vein under anesthesia (2.5% Isoflurane in O2 at 1 L/min flow rate), rats were sacrificed by decapitation at 30 min p.i. (n=2). Blood was collected in heparin containing tubes (4.5 mL LH PST tubes; BD vacutainer, BD, Franklin Lakes, N.J., USA) and stored on ice to stop the metabolism. Next, the blood was centrifuged for 5 min at 3000 rpm to separate the plasma. About 0.5 mL of plasma was spiked with about 10 μg of the authentic non-radioactive compound (1 mg/mL solution) and injected on to HPLC, which was connected to a Chromolith® performance column (C18, 3 mm×100 mm, Merck KGaA, Darmstadt, Germany). The mobile phase consisted of 0.05 M NaOAc buffer (pH 5.5) (solution A) and CH3CN (solvent B). The following method was used for the analysis: isocratic elution with 100% A for 4 min at a flow rate of 0.5 mL/min, linear gradient to 90% B by 9 min at a flow rate of 1 mL/min, and isocratic elution with mixture of 10% A and 90% B until 12 min. After passing through the UV detector (254 nm), the HPLC eluate was collected as 1 mL fractions (fraction collection each minute) using an automatic fraction collector and the radioactivity of these fractions was measured using an automated gamma counter.

[3] = Perfused brain radiometabolite analysis (30 min p.i.)
Experimental: The relative amounts of parent tracer and radiometabolites in perfused cerebellum and cerebrum at 30 min p.i. of the tracer was determined in healthy male Wistar rats for [^11C]B-4, [^11C]B-2, [^11C]B-7, and [^11C]B-10. After i.v. administration of about 74 MBq of the radioligand via tail vein under anesthesia (2.5% Isoflurane in O2 at 1 L/min flow rate), rats were sacrificed by administering an overdose of Nembutal (CEVA Santé Animale, 200 mg/kg intraperitoneal). When breathing had stopped, the rats were perfused with saline (Mini Plasco®, Braun, Melsungen, Germany) until the liver turned pale. Brain was isolated, cerebrum and cerebellum were separated and homogenized in 3 mL and 2 mL of CH3CN, respectively, for about 2 min. A volume of 1 mL of this homogenate was diluted with an equal volume of water and a part of this homogenate was filtered through a 0.22 μm filter (Millipore, Bedford, USA). About 0.5 mL of the filtrate was diluted with 0.1 mL of water and spiked with 10 μg of authentic non-radioactive compound (1 mg/mL solution) for identification of the intact tracer. The cerebrum/cerebellum extract was then injected onto an HPLC system consisting of an analytical XBridge® column (C18, 5 μM, 3 mm×100 mm, Waters) eluted with a mixture of 0.05 M NaOAc buffer (pH 5.5) and CH3CN (60:40 v/v) at a flow rate of 0.8 mL/min. The HPLC eluate was collected as 1 mL fractions (fraction collection each minute) after passing through the UV detector (254 nm), and the radioactivity in the fractions was measured using an automated gamma counter.

Structure (SMILES): [11CH3]Oc1ccc(F)cc1C1CCN(c2ccn3c(CC4CC4)nnc3c2Cl)CC1 [[^11C]B-4, 8-chloro-3-(cyclopropylmethyl)-7-[4-[5-fluoro-2-[^11C]methoxyphenyl]-1-piperidinyl]-1,2,4-triazolo[4,3-a]pyridine]
- % ID Blood ([1]; 2 min p.i.): 5.6 % ID and 5.6 ± 0.4 % ID
- % ID Carcass ([1]; 2 min p.i.): 42.0 ± 2.0 % ID
- % ID Cerebellum ([1]; 2 min p.i.): 0.10 % ID and 0.100 ± 0.000 % ID
- % ID Cerebrum total ([1]; 2 min p.i.): 0.45 % ID and 0.450 ± 0.029 % ID
- % ID Cortex ([1]; 2 min p.i.): 0.092 ± 0.019 % ID
- % ID Heart ([1]; 2 min p.i.): 4.1 ± 0.3 % ID
- % ID Hippocampus ([1]; 2 min p.i.): 0.010 ± 0.001 % ID
- % ID Intestines ([1]; 2 min p.i.): 7.3 ± 0.6 % ID
- % ID Kidneys ([1]; 2 min p.i.): 6.4 ± 0.6 % ID
- % ID Liver ([1]; 2 min p.i.): 29.9 ± 2.0 % ID
- % ID Lungs ([1]; 2 min p.i.): 2.9 ± 0.4 % ID
- % ID Rest of cerebrum ([1]; 2 min p.i.): 0.344 ± 0.047 % ID
- % ID Spleen + Pancreas ([1]; 2 min p.i.): 1.9 ± 0.2 % ID
- % ID Stomach ([1]; 2 min p.i.): 1.5 ± 0.3 % ID
- % ID Striatum ([1]; 2 min p.i.): 0.014 ± 0.001 % ID
- % ID Urine ([1]; 2 min p.i.): 0.0 ± 0.0 % ID
- Total brain uptake ([1]; 2 min p.i.): 0.58 % ID and 0.58 ± 0.0 % ID
- SUV Blood ([1]; 2 min p.i.): 0.80 ± 0.01
- SUV Cerebellum ([1]; 2 min p.i.): 1.46 and 1.46 ± 0.02
- SUV Cerebrum total ([1]; 2 min p.i.): 1.39 ± 0.01
- SUV Cortex ([1]; 2 min p.i.): 1.65 ± 0.02
- SUV Hippocampus ([1]; 2 min p.i.): 1.04 ± 0.01
- SUV Striatum ([1]; 2 min p.i.): 1.46 and 1.46 ± 0.02
- % ID Blood ([1]; 30 min p.i.): 2.8 ± 0.3 % ID
- % ID Carcass ([1]; 30 min p.i.): 64.3 ± 5.8 % ID
- % ID Cerebellum ([1]; 30 min p.i.): 0.191 ± 0.030 % ID
- % ID Cerebrum total ([1]; 30 min p.i.): 0.694 ± 0.117 % ID
- % ID Cortex ([1]; 30 min p.i.): 0.165 ± 0.081 % ID
- % ID Heart ([1]; 30 min p.i.): 2.5 ± 0.4 % ID
- % ID Hippocampus ([1]; 30 min p.i.): 0.026 ± 0.007 % ID
- % ID Intestines ([1]; 30 min p.i.): 8.3 ± 2.0 % ID
- % ID Kidneys ([1]; 30 min p.i.): 4.0 ± 0.7 % ID
- % ID Liver ([1]; 30 min p.i.): 14.2 ± 2.4 % ID
- % ID Lungs ([1]; 30 min p.i.): 0.7 ± 0.1 % ID
- % ID Rest of cerebrum ([1]; 30 min p.i.): 0.469 ± 0.047 % ID
- % ID Spleen + Pancreas ([1]; 30 min p.i.): 1.4 ± 0.2 % ID
- % ID Stomach ([1]; 30 min p.i.): 2.1 ± 0.3 % ID
- % ID Striatum ([1]; 30 min p.i.): 0.034 ± 0.005 % ID
- % ID Urine ([1]; 30 min p.i.): 0.3 ± 0.2 % ID
- Total brain uptake ([1]; 30 min p.i.): 0.93 ± 0.2 % ID
- SUV Blood ([1]; 30 min p.i.): 0.40 ± 0.01
- SUV Cerebellum ([1]; 30 min p.i.): 2.33 ± 0.04
- SUV Cerebrum total ([1]; 30 min p.i.): 1.66 ± 0.03
- SUV Cortex ([1]; 30 min p.i.): 1.87 ± 0.02
- SUV Hippocampus ([1]; 30 min p.i.): 1.57 ± 0.03
- SUV Striatum ([1]; 30 min p.i.): 2.31 ± 0.04
- % ID Blood ([1]; 60 min p.i.): 3.3 % ID and 3.3 ± 0.2 % ID
- % ID Carcass ([1]; 60 min p.i.): 62.8 ± 2.5 % ID
- % ID Cerebellum ([1]; 60 min p.i.): 0.144 ± 0.021 % ID
- % ID Cerebrum total ([1]; 60 min p.i.): 0.596 ± 0.128 % ID
- % ID Cortex ([1]; 60 min p.i.): 0.097 ± 0.039 % ID
- % ID Heart ([1]; 60 min p.i.): 1.3 ± 0.3 % ID
- % ID Hippocampus ([1]; 60 min p.i.): 0.021 ± 0.005 % ID
- % ID Intestines ([1]; 60 min p.i.): 11.1 ± 0.9 % ID
- % ID Kidneys ([1]; 60 min p.i.): 2.9 ± 0.4 % ID
- % ID Liver ([1]; 60 min p.i.): 15.4 ± 0.9 % ID
- % ID Lungs ([1]; 60 min p.i.): 0.5 ± 0.1 % ID
- % ID Rest of cerebrum ([1]; 60 min p.i.): 0.450 ± 0.086 % ID
- % ID Spleen + Pancreas ([1]; 60 min p.i.): 1.3 ± 0.2 % ID
- % ID Stomach ([1]; 60 min p.i.): 1.6 ± 0.3 % ID
- % ID Striatum ([1]; 60 min p.i.): 0.029 ± 0.009 % ID
- % ID Urine ([1]; 60 min p.i.): 0.6 ± 0.1 % ID
- % ID present in liver and intestines ([1]; 60 min p.i.): 26.5 % ID
- % ID present in the urinary system ([1]; 60 min p.i.): 3.5 % ID
- Total brain uptake ([1]; 60 min p.i.): 0.76 ± 0.1 % ID
- SUV Blood ([1]; 60 min p.i.): 0.50 ± 0.00
- SUV Cerebellum ([1]; 60 min p.i.): 1.68 ± 0.04
- SUV Cerebrum total ([1]; 60 min p.i.): 1.40 ± 0.03
- SUV Cortex ([1]; 60 min p.i.): 1.34 ± 0.02
- SUV Hippocampus ([1]; 60 min p.i.): 1.13 ± 0.02
- SUV Striatum ([1]; 60 min p.i.): 1.78 ± 0.04
- % ID present in the carcass ([1]; at all time points examined): ~56 % ID
- Intact tracer in rat plasma [2]: 41.0 ± 7.1%
- Polar metabolites in rat plasma [2]: 59.0 ± 7.1%
- intact tracer in perfused cerebellum [3]: 92.7%
- intact tracer in perfused cerebrum [3]: 92.4%
- polar metabolite in perfused cerebellum [3]: 7.3%
- polar metabolite in perfused cerebrum [3]: 7.6%
- recovered radioactivity present as intact tracer, on average, in both cerebrum and cerebellum [3]: about 90%
